Reference: paper PMC9925730, “Controlled sequential in situ self-assembly and disassembly of a fluorogenic cisplatin prodrug for cancer theranostics” (Nature Communications, 2023)
Where “and” joins values, the source holds several entries; their conditions need not be identical. Identical values can stand only once.

Assay: Blood circulation half-life (ICP-OES of Pt)
Type: in vivo, mice
Conditions: for blood circulation half-life t1/2: mice, i.v., 2.25 mg kg-1 Pt
Source text: Scale bar: 100 μm. The occurrence of hepatotoxicity in […]-treated mice could be presumably owing to (1) the large size of […] (~160 nm) that caused a high liver uptake and (2) the fast release of cytotoxic cisplatin from the liver-resided […] by hepatic GSH that led to a high concentration of cisplatin in the liver. One representative experiment out of two is shown. 30 PBS CDDP Pt IV NP sP- Cy Pt 20 10 0 013 619 25 Days Supplementary Figure 34. Monitoring of the body weight of mice with orthotopic HepG2/Luc liver tumors following indicated treatments. […] Values denote mean ± s.d. (n = 4 independent animals). 120 CDDP Pt IV NP s […] 40 0 0 25510 2015 Time (h) Supplementary Figure 35. Examination of the blood circulation half-lives of […], and CDDP. Plots of the relative amount of Pt (%) in the blood after i.v. injection of […], and CDDP (at a dose of 2.25 mg kg-1 Pt) into healthy mice. Data are mean ± s.d. (n = 3 independent animals). […] 0.23 h). […] The residues were then diluted with 5 mL 2% HNO3 and 5% HCl solution, and the concentrations of Pt element were determined by ICP-OES, which were further applied to calculate the contents of Pt element in the blood. The plot of the percentage of Pt element remained in the blood versus injection time to yield the pharmacokinetic time. Urine and Faeces analysis. […] Urine and faeces were collected at 2 (for 0-2 h), 4 (for 2-4 h), 8 (for 4- 8 h) and 12 h (for […]), which were diluted in methanol and centrifuged at 3,600 × g for 10 min, followed by filtering via a 0.22 μm syringe filter. The solutions were analyzed by HPLC (660 nm detection) to characterize all the mCy-containing compounds. Using the established standard curves for […] Cy-COOH, the amount of each compound in the urine and faeces could be calculated, which were further applied to determine the percentage of them in the urine and faeces. The data were summarized in Supplementary Tables 5-8. […] Urine and faeces were collected and weighed. The urine and faeces were digested with concentrated HNO3 (65~70%) and HCl (36~38%) at 90 °C for 24 h. The solution was diluted to 5 mL 2% HNO3 and 5% HCl solution, and the concentration of Pt element was measured by ICP-OES, which was further applied to calculate the percentage of Pt in corresponding urine and faeces. The data were summarized in Supplementary Tables 9 and 10. 47

SMILES | Relative Pt amount in blood (Time 0 h, individual mice) | Relative Pt amount in blood (Time 0 h, mean of 3 mice) | Relative Pt amount in blood (Time 0.5 h, individual mice) | Relative Pt amount in blood (Time 0.5 h, mean of 3 mice) | Relative Pt amount in blood (Time 1 h, individual mice) | Relative Pt amount in blood (Time 1 h, mean of 3 mice) | Relative Pt amount in blood (Time 2 h, individual mice) | Relative Pt amount in blood (Time 2 h, mean of 3 mice) | Relative Pt amount in blood (Time 4 h, individual mice) | Relative Pt amount in blood (Time 4 h, mean of 3 mice) | Relative Pt amount in blood (Time 8 h, individual mice) | Relative Pt amount in blood (Time 8 h, mean of 3 mice) | Relative Pt amount in blood (Time 12 h, individual mice) | Relative Pt amount in blood (Time 12 h, mean of 3 mice) | Relative Pt amount in blood (Time 24 h, individual mice) | Relative Pt amount in blood (Time 24 h, mean of 3 mice) | blood circulation half-life t1/2
CC1(C)C(/C=C/C2=C3Oc4cc(OP(=O)(O)O)c(Cl)cc4C=C3CCC2)=[N+](CCCNC(=O)[C@@H](Cc2ccccc2)NC(=O)[C@@H](Cc2ccccc2)NC(=O)CCC(=O)[O][Pt]([NH2])([NH2])([OH])([Cl])[Cl])c2ccccc21 [P-CyPt] | 89.0517 and 110.783 and 100.165 | 100 | 75.3589 and 72.0355 and 86.1448 | 77.8464 | 48.6558 and 63.4564 and 58.4934 | 56.8685 | 21.7134 and 35.2733 and 24.195 | 27.0606 | 12.3988 and 8.818 and 6.257 | 9.158 | 7.923 and 5.247 and 4.422 | 5.864 | 4.1743 and 2.189 and 3.164 | 3.176 | 1.657 and 1.56 and 1.79 | 1.669 | 32.4 ± 3.6 min
[NH2][Pt]([NH2])([Cl])[Cl] [CDDP, cisplatin] | 93.8305 and 92.1406 and 114.029 | 100 | 57.2961 and 52.6288 and 39.5118 | 49.8122 | 22.492 and 12.6341 and 19.9651 | 18.3637 | 7.725 and 8.771 and 6.76 | 7.752 | 2.808 and 1.569 and 2.181 | 2.186 | 1.408 and 0.5955 and 1.521 | 1.175 | 1.746 and 1.28 and 0.8611 | 1.2956 | 1.634 and 0.8852 and 0.6518 | 1.057 | 43.8 ± 2.4 min
